The structures appear in SMILES notation.

As a reminder, the inhibition is the drop in the measured response relative to a control, in per cent. By Ki is commonly meant a measure of affinity in units of concentration, obtained from inhibition or displacement. One may read the pKi as the negative decadic logarithm of the Ki, by convention in mol/L.

The target in experiment [1] is Melanocortin receptor 4 (Homo sapiens) (UniProt P32245). Description: MC4 (h) CEREP ligand profiling. The settings on record: Compound concentration 10.0 uM.
For experiment [2], the target named is Thromboxane A2 receptor (Homo sapiens) (UniProt P21731). Description: TXA2/PGH2 CEREP ligand profiling. The settings on record: Compound concentration 10.0 uM.
Experiment [3] has as its target GABA-A receptor; anion channel (Homo sapiens) (UniProt P14867+P47870+P18507+P28472+P48169+Q99928+Q9UN88+P34903+O00591+O14764+Q8N1C3+P18505+P78334+P47869+P31644+Q16445). Description: BZD (central) CEREP ligand profiling. Format: protein-complex assay. The note with it: Compound concentration 10.0 uM.
Experiment [4] deals with Histamine H2 receptor (Homo sapiens) (UniProt P25021). The experiment is described as follows: H2 (h) CEREP ligand profiling. The note with it: Compound concentration 10.0 uM.
The target of experiment [5] is Neurotensin receptor type 1 (Homo sapiens) (UniProt P30989). Description: NT1 (h) CEREP ligand profiling. The settings on record: Compound concentration 10.0 uM.
The nature of experiment [6]: GPCRScan assay: inhibition of GABA/PBR. Also on record: species or system Rattus norvegicus; radioligand conc. used [nm] 0.3 – 2.0, parental cells brain tissue.

Sequence of Neurotensin receptor type 1 (Homo sapiens) (P30989 whole entry): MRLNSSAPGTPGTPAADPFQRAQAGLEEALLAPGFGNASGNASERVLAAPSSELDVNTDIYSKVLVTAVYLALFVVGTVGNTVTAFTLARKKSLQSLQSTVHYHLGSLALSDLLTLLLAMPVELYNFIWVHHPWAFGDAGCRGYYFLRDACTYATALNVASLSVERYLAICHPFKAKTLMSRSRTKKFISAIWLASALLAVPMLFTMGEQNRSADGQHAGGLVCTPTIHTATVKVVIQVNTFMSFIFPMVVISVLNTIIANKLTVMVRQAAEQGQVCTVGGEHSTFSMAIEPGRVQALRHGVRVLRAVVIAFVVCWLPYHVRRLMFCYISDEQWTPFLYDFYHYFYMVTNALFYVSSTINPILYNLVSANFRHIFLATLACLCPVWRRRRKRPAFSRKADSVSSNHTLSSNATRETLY
Sequence of Thromboxane A2 receptor (Homo sapiens) (P21731 whole entry): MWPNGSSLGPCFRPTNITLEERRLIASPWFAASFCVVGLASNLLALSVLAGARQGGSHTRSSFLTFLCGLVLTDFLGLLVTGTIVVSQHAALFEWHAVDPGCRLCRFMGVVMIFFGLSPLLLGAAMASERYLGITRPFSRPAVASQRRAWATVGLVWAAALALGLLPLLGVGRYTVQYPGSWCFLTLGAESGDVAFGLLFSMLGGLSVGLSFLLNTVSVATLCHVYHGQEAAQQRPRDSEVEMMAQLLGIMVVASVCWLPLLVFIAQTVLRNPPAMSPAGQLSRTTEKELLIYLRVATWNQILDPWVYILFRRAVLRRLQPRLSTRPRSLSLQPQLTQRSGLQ
Sequence of Melanocortin receptor 4 (Homo sapiens) (P32245 whole entry): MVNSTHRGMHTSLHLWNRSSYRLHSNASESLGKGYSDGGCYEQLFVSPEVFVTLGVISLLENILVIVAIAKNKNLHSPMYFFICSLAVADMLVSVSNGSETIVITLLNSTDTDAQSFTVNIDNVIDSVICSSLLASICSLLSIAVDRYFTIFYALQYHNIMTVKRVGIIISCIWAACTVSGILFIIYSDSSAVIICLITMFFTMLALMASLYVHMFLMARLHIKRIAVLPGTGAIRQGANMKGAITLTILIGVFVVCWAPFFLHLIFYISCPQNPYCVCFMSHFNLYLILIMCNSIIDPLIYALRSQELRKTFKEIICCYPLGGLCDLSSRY
Sequence of Histamine H2 receptor (Homo sapiens) (P25021 whole entry): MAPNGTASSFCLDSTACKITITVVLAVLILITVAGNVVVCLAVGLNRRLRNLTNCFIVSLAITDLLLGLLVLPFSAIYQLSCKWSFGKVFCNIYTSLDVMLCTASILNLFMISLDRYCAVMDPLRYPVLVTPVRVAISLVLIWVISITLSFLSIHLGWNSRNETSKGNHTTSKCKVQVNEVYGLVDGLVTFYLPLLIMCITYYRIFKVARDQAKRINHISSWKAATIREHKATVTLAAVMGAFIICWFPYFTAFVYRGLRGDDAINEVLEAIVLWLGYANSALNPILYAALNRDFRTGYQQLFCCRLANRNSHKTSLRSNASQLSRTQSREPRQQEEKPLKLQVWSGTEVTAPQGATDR

As to `CCC(=N\O)/C(C)=C/c1ccc(F)cc1` [A-079], the inhibition is 2% in experiment [1]; 6% in experiment [2]; 1% in experiment [3]; 3% in experiment [4]; -5% in experiment [5].

`CCC(=N\O)/C(C)=C/c1ccc(F)c(C)c1` [A-226]: in experiment [6], the Ki is 3.69 µM and the pKi worked out at 5.44.
